Values joined by “and” are separate entries in the source; they are usually repeats but may differ in a detail not shown here. Equal values may be shown once. Active and inactive are the calls of the source. Cut-off read from the data, not from the text of the source, for most assays here: actives have a measured IC50 and inactives only a lower limit.
Key:
HEK293 [1] = assay: SAR analysis of compounds that are cytotoxic to HEK293 - Set 3. [Related pubchem assays (depositor defined):AID1575, AID1578, AID1848, AID1849, AID2001, AID2333, AID2334, AID2335, AID2337, AID2469]; format: functional, cell-based; conditions: Homo sapiens
Interleukin-8 [2] = target: T1, Interleukin-8 (Homo sapiens, UniProt P10145); assay: SAR analysis of Tumor necrosis factor alpha (TNF-alpha) induced IL-8 secretion in MCF-7/NOD1 cells - Set 2. [Related pubchem assays (depositor defined):AID1575, AID2250, AID2260]; format: functional, cell-based
T1 sequence (P10145 whole entry): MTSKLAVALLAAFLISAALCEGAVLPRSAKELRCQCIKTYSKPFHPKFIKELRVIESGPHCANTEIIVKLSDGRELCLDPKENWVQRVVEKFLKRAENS

HEK293 [3] = assay: NOD2 signaling inhibitors in MDP-stimulated cells, cell-based, uHTS, luminescence (AID 2001); format: functional; conditions: Homo sapiens
[4] = target: T2, Nucleotide-binding oligomerization domain-containing protein 1 (Homo sapiens, UniProt Q9Y239); assay: SAR analysis of NF-kappaB dependent luciferase using DAP as an inducer - Set 2. [Related pubchem assays (depositor defined):AID1566, AID1575, AID1578, AID1579, AID1849, AID1852, AID2264]; format: functional
T2 sequence (Q9Y239 whole entry): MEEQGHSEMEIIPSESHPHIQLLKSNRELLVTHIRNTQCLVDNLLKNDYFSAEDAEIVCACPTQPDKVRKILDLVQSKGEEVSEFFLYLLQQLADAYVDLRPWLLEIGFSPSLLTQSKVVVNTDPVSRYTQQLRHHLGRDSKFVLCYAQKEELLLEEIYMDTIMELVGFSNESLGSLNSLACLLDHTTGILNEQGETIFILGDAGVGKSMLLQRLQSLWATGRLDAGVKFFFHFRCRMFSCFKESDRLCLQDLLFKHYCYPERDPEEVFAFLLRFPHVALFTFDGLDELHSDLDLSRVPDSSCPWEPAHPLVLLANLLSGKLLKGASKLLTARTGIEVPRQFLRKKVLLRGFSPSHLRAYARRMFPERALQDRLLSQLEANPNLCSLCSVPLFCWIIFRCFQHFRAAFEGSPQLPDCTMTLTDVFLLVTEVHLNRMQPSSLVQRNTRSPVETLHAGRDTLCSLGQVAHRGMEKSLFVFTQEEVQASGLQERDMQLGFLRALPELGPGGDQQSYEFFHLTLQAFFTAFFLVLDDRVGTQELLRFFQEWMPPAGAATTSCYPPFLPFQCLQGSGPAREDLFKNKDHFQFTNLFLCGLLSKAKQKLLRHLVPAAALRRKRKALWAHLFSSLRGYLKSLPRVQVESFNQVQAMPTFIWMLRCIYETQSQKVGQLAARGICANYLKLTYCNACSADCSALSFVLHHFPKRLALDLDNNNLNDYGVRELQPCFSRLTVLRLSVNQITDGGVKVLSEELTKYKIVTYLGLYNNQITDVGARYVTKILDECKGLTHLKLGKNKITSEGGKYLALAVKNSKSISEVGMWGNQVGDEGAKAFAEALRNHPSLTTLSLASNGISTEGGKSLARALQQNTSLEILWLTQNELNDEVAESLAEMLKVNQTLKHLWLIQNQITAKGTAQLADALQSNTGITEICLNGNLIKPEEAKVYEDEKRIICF

[5] = target: T3, Nucleotide-binding oligomerization domain-containing protein 2 (Homo sapiens, UniProt Q9HC29); assay: NOD2 inhibitors, SAR follow-up, set 2 (AID 2475); format: functional
T3 sequence (Q9HC29 whole entry, the tested form may be a part): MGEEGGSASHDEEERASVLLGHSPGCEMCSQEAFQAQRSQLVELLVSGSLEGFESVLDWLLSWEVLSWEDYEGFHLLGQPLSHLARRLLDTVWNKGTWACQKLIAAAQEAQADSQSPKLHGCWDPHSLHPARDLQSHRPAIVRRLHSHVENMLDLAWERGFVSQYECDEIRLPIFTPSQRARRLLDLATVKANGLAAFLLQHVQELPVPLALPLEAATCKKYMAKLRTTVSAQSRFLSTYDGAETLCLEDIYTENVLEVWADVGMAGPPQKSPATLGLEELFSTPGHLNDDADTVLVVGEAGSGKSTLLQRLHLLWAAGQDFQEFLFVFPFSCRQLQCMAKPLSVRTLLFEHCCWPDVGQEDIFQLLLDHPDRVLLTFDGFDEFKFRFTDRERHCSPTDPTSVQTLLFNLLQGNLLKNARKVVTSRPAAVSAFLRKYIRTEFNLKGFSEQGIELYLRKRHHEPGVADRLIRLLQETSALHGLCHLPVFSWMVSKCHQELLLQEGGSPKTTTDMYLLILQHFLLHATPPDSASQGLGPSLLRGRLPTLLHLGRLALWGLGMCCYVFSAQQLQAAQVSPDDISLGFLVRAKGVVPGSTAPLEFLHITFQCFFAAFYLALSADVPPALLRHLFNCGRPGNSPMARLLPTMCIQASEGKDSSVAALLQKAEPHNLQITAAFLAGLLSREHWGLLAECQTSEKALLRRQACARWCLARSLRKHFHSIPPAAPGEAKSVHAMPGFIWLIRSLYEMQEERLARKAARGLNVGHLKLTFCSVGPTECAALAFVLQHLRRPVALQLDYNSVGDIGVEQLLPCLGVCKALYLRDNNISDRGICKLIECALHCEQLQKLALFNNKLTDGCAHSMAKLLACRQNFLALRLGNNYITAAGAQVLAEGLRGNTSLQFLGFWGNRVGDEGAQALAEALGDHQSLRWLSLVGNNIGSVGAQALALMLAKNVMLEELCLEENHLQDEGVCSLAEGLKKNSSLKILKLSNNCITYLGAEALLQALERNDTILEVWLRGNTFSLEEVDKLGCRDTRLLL

Tumor necrosis factor [6] = target: T4, Tumor necrosis factor (Homo sapiens, UniProt P01375); assay: TNFa-triggered NF-kB activation inhibitors, SAR follow-up, cell-based, revised (AID 2337); format: functional
T4 sequence (P01375 whole entry): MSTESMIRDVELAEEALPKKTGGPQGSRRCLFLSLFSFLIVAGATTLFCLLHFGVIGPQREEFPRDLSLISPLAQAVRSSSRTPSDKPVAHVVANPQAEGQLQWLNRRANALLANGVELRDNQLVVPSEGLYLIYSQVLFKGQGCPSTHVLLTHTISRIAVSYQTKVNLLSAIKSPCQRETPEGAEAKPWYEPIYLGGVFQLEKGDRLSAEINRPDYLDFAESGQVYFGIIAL

Interleukin-8 [7] = target: T1, Interleukin-8; assay: SAR analysis of GM-Tri-DAP induced IL-8 secretion in MCF-7/NOD1 cells - Set 2. [Related pubchem assays (depositor defined):AID1575, AID1578, AID2333]; format: functional, cell-based
HEK293 [8] = assay: cells; format: functional, cell-based; conditions: Homo sapiens
[9] = target: T3, Nucleotide-binding oligomerization domain-containing protein 2; assay: PubChem AID 2334; format: functional
[10] = target: T3, Nucleotide-binding oligomerization domain-containing protein 2; assay: NOD2 signaling inhibitors, analog potency, SAR follow-up, cell-based, set 3 (AID 2799); format: functional
HEK293 [11] = assay: SAR analysis of compounds that are cytotoxic to HEK293 - Set 2. [Related pubchem assays (depositor defined):AID1575, AID1578, AID1849, AID2001, AID2333, AID2334, AID2335, AID2337, AID2800]; format: functional, cell-based; conditions: Homo sapiens
HEK293 [12] = assay: cells; format: functional, cell-based; conditions: Homo sapiens; remark: listed apart in the source
[13] = target: T2, Nucleotide-binding oligomerization domain-containing protein 1; assay: SAR analysis of compounds that inhibit NOD1 - Set 3. [Related pubchem assays (depositor defined):AID1566, AID1575, AID1578, AID1849, AID1852, AID2333, AID2335, AID2466]; format: functional
[14] = target: T2, Nucleotide-binding oligomerization domain-containing protein 1; assay: NOD1 signaling inhibitors, SAR follow-up, revised (AID 2333); format: functional
Tumor necrosis factor [15] = target: T4, Tumor necrosis factor; assay: TNFa-triggered NF-kB activation inhibitors, SAR follow-up, cell-based, set 3 (AID 2801); format: functional
HEK293 [16] = assay: NOD1 signaling inhibitors, primary screen, cell-based, luminescence, uHTS (AID 1578); format: functional; conditions: Homo sapiens
HEK293 [17] = assay: cells; conditions: Homo sapiens
[18] = (§1) Late stage assay provider results from the probe development effort to identify inhibitors of Protein Phosphatase Methylesterase 1 (PME-1): luminescence-based biochemical dose response assay to determine cytotoxicity of inhibitor compounds. [Related pubchem assays (depositor defined):AID2130, AID2143, AID2171, AID2174, AID2177, AID2232, AID2233, AID2291, AID2363, AID2365, AID2366, AID2368, AID2369, AID2371, AID463124, AID463130, AID463131, AID463132, AID463146, AID463149] Panel member name: Fetal Calf Serum; format: toxicity
[19] = as §1, with “Serum-free Media” for “Fetal Calf Serum”; format: toxicity

| SMILES | IC50 (HEK293 [1]) | IC50 (Interleukin-8 [2]) | IC50 (HEK293 [3]) | IC50 [4] | IC50 [5] | IC50 (Tumor necrosis factor [6]) | IC50 (Interleukin-8 [7]) | IC50 (HEK293 [8]) | IC50 [9] | IC50 [10] | IC50 (HEK293 [11]) | IC50 (HEK293 [12]) | IC50 [13] | IC50 [14] | IC50 (Tumor necrosis factor [15]) | EC50 (HEK293 [16]) | IC50 (HEK293 [17]) | CC50 [18] | CC50 [19] |
| --- | --- | --- | --- | --- | --- | --- | --- | --- | --- | --- | --- | --- | --- | --- | --- | --- | --- | --- | --- |
| C/C=C/Cn1c(SCCCc2ccccc2)nc2c1c(=O)[nH]c(=O)n2C | > 20 µM (inactive) | > 25 µM (inactive) | 16.2 µM (inactive) | 14.4 µM (active) | 4.18 µM (active) | 62.7 µM (inactive) | 3.43 µM (active) | > 20 µM (inactive) | 16.9 µM (active) | 7.97 µM (active) and 10.6 µM (active) | > 20 µM (inactive) | > 20 µM (inactive) | 1.36 µM (active) | 1.81 µM (active) | 18.2 µM (active) and 18.6 µM (inactive) | 6.37 µM (active) | > 20 µM (inactive) | – | – |
| CC[C@]1(c2ccccc2C)C(=O)N(C(=O)OC)N1C(=O)OC | – | – | – | – | – | – | – | – | – | – | – | – | – | – | – | – | – | > 50 µM (inactive) | > 50 µM (inactive) |

From ChEMBL document CHEMBL1201862, “PubChem BioAssay data set” (2004)
